Measured values as given in ChEMBL document CHEMBL3091391, “An assay for human telomeric G-quadruplex DNA binding drugs” (Bioorg Med Chem Lett, 2013).
Active and inactive are the calls of the source. The rule behind the calls is not given here.

How the values were obtained:
[1] = species on record: Homo sapiens; experiment: Binding affinity to human d[AGGG(TTAGGG)3] telomeric G-quadruplex DNA by fluorescence-based assay
[2] = species on record: Homo sapiens; experiment: Binding affinity to human telomeric G-quadruplex DNA
[3] = species on record: Homo sapiens; experiment: Selectivity ratio of binding affinity for human d[AGGG(TTAGGG)3] telomeric G-quadruplex DNA in presence of sodium ions to binding affinity for human d[AGGG(TTAGGG)3] telomeric G-quadruplex DNA in presence of potassium ions
[4] = species on record: Homo sapiens; experiment: Binding affinity to human d[AGGG(TTAGGG)3] telomeric G-quadruplex DNA after 1 to 12 hrs by titrimetric analysis in presence of sodium ions
[5] = species on record: Homo sapiens; experiment: Binding affinity to human d[AGGG(TTAGGG)3] telomeric G-quadruplex DNA after 1 to 12 hrs by titrimetric analysis in presence of potassium ions
[6] = Binding affinity to d(G4C4)2 duplex DNA (unknown origin) by fluorescence-based assay

Row | Activity [1] | SMILES | other results
1 | inactive | NC[C@@H]1O[C@H](O[C@H]2[C@@H](O)[C@H](O[C@@H]3[C@@H](O)[C@H](N)C[C@H](N)[C@H]3O[C@H]3O[C@H](CN)[C@@H](O)[C@H](O)[C@H]3N)O[C@@H]2CNC(=S)NCCCNC(=S)NCc2ccc3c(c2)C(=O)c2ccccc2C3=O)[C@H](N)[C@@H](O)[C@@H]1O | –
2 | inactive | NC[C@@H]1O[C@H](O[C@H]2[C@@H](O)[C@H](O[C@@H]3[C@@H](O)[C@H](N)C[C@H](N)[C@H]3O[C@H]3O[C@H](CN)[C@@H](O)[C@H](O)[C@H]3N)O[C@@H]2CNC(=S)NCCNC(=S)NCc2ccc3c(c2)C(=O)c2ccccc2C3=O)[C@H](N)[C@@H](O)[C@@H]1O | –
3 | inactive | NCC1O[C@H](O[C@H]2[C@@H](O)[C@H](O[C@@H]3[C@@H](O)[C@H](N)C[C@H](N)[C@H]3O[C@H]3O[C@H](CN)[C@@H](O)[C@H](O)[C@H]3N)O[C@@H]2CNC(=S)NCc2ccc3c(c2)C(=O)c2ccccc2C3=O)[C@H](N)[C@@H](O)[C@@H]1O (single isomer, unassigned) | –
4 | inactive | NC[C@@H]1O[C@H](O[C@H]2[C@@H](O)[C@H](O[C@@H]3[C@@H](O)[C@H](N)C[C@H](N)[C@H]3O[C@H]3O[C@H](CN)[C@@H](O)[C@H](O)[C@H]3N)O[C@@H]2CSCCNC(=S)NCCNC(=S)NCc2ccc3c(c2)C(=O)c2ccccc2C3=O)[C@H](N)[C@@H](O)[C@@H]1O | –
5 | inactive | NC[C@@H]1O[C@H](O[C@H]2[C@@H](O)[C@H](O[C@@H]3[C@@H](O)[C@H](N)C[C@H](N)[C@H]3O[C@H]3O[C@H](CN)[C@@H](O)[C@H](O)[C@H]3N)O[C@@H]2CSCCNC(=S)NCCCNC(=S)NCc2ccc3c(c2)C(=O)c2ccccc2C3=O)[C@H](N)[C@@H](O)[C@@H]1O | –

More lines, now with the values behind:

Row | SMILES | Activity [1] | other results
6 | NC[C@@H]1O[C@H](O[C@H]2[C@@H](O)[C@H](O[C@@H]3[C@@H](O)[C@H](N)C[C@H](N)[C@H]3O[C@H]3O[C@H](CN)[C@@H](O)[C@H](O)[C@H]3N)O[C@@H]2CSCCNC(=S)Nc2ccc3c(c2)C(=O)c2ccccc2C3=O)[C@H](N)[C@@H](O)[C@@H]1O | inactive | –
7 | NC[C@@H]1O[C@H](O[C@H]2[C@@H](O)[C@H](O[C@@H]3[C@@H](O)[C@H](N)C[C@H](N)[C@H]3O[C@H]3O[C@H](CN)[C@@H](O)[C@H](O)[C@H]3N)O[C@@H]2CSCCNC(=S)NCCCOCCCCOCCCNC(=S)NCc2ccc3c(c2)C(=O)c2ccccc2C3=O)[C@H](N)[C@@H](O)[C@@H]1O | inactive | –
8 | NC[C@@H]1O[C@H](O[C@H]2[C@@H](O)[C@H](O[C@@H]3[C@@H](O)[C@H](N)C[C@H](N)[C@H]3O[C@H]3O[C@H](CN)[C@@H](O)[C@H](O)[C@H]3N)O[C@@H]2CNC(=S)Nc2ccc3c(c2)C(=O)c2ccccc2C3=O)[C@H](N)[C@@H](O)[C@@H]1O | inactive | –
9 | NC[C@@H]1O[C@H](O[C@H]2[C@@H](O)[C@H](O[C@@H]3[C@@H](O)[C@H](N)C[C@H](N)[C@H]3O[C@H]3O[C@H](CN)[C@@H](O)[C@H](O)[C@H]3N)O[C@@H]2CSCCNC(=S)NCCCCCCCCCCNC(=S)NCc2ccc3c(c2)C(=O)c2ccccc2C3=O)[C@H](N)[C@@H](O)[C@@H]1O | inactive | –
10 | NC[C@@H]1O[C@H](O[C@H]2[C@@H](O)[C@H](O[C@@H]3[C@@H](O)[C@H](N)C[C@H](N)[C@H]3O[C@H]3O[C@H](CN)[C@@H](O)[C@H](O)[C@H]3N)O[C@@H]2CSCCNC(=S)NCCCNC(=O)c2ccc3c(c2)C(=O)c2ccccc2C3=O)[C@H](N)[C@@H](O)[C@@H]1O | – | Ka [2]: 1.25 ×10⁷ /M
11 | NC[C@@H]1O[C@H](O[C@H]2[C@@H](O)[C@H](O[C@@H]3[C@@H](O)[C@H](N)C[C@H](N)[C@H]3O[C@H]3O[C@H](CN)[C@@H](O)[C@H](O)[C@H]3N)O[C@@H]2CNC(=S)NCCCOCCCCOCCCNC(=S)NCc2ccc3c(c2)C(=O)c2ccccc2C3=O)[C@H](N)[C@@H](O)[C@@H]1O | inactive | –
12 | NC[C@@H]1O[C@H](O[C@H]2[C@@H](O)[C@H](O[C@@H]3[C@@H](O)[C@H](N)C[C@H](N)[C@H]3O[C@H]3O[C@H](CN)[C@@H](O)[C@H](O)[C@H]3N)O[C@@H]2CNC(=S)NCCCCCCCCCCNC(=S)NCc2ccc3c(c2)C(=O)c2ccccc2C3=O)[C@H](N)[C@@H](O)[C@@H]1O | inactive | –
13 | CN1/C(=C/c2cc[n+](CCCCC(=O)NCCSC[C@H]3O[C@@H](O[C@@H]4[C@@H](O)[C@H](N)C[C@H](N)[C@H]4O[C@H]4O[C@H](CN)[C@@H](O)[C@H](O)[C@H]4N)[C@H](O)[C@@H]3O[C@H]3O[C@@H](CN)[C@@H](O)[C@H](O)[C@H]3N)c3ccccc23)Sc2ccccc21 | – | Selectivity ratio [3]: 10; K [4]: 9.6 ×10⁷ /M; K [5]: 9.3 ×10⁶ /M; Activity [6]: Active
14 | NC[C@@H]1O[C@H](O[C@H]2[C@@H](O)[C@H](O[C@@H]3[C@@H](O)[C@H](N)C[C@H](N)[C@H]3O[C@H]3O[C@H](CN)[C@@H](O)[C@H](O)[C@H]3N)O[C@@H]2CSCCNC(=S)NCc2ccc3c(c2)C(=O)c2ccccc2C3=O)[C@H](N)[C@@H](O)[C@@H]1O | inactive | –
